# Measurements as given in patent publication US20220273590A1, “COMPOUNDS FOR PREVENTION AND TREATMENT OF POST-OPERATIVE COGNITIVE DYSFUNCTION” (ABREXA PHARMACEUTICALS, INC., priority 2019, published 2022).
# Like-named read-outs stand apart in the source and are kept apart here.
# Tests used:
# [1] = system: animal model of POCD; experiment: Novel Object and Novel Location Recognition (NOR/NLR) after abdominal surgery; format: in vivo, Wistar rats
# Description: Male Wistar rats (˜350 g) were randomly divided into 4 experimental groups; non-surgery; control abdominal surgery; surgery+acute J147 treatment (7 mg/rat by gavage, 4-5 hours before surgery); surgery+chronic J147 (500 mg/kg food, 1 week before surgery until the end of the study). Timed blood samples were collected. Days 9-11 post surgery, general behavior (Open field: OF) and cognitive performance (Novel Object/Novel Location Recognition: NOR/NLR; Morris Water Maze: MWM) were tested. Day 14, rats were sacrificed and blood and brain tissue were collected for further analyses. (Neuro)inflammation was examined by circulating cytokine levels and microglia activation in the brain. Abdominal surgery was performed as described previously by Hovens et al., 2014. Rats were anaesthetized using sevoflurane (±2.5% in air/O2=2/1) and received 0.01 mg/kg buprenorphine s.c. A heating blanket was used to preserve body temperature. An incision was made along the linea alba and the intestines were exteriorised. The upper mesenteric artery was isolated from surrounding tissue and clamped for a period of 30 minutes during which the intestines and surgical wound were covered with gauze soaked in saline, to prevent dehydration. During this time the animals were equipped with an indwelling jugular vein catheter to mimic insertion of a venous line in patients and allow timed blood sampling. For that, an incision was made at the subclavical region, the jugular vein was freed from surrounding tissue and a catheter was introduced and advanced into the vena cava, just above the right atrium. The other end of the catheter was guided subcutaneously to the head, and fixated on the skull with dental cement. The catheter was filled with PVP dissolved in heparin solution and closed with a plastic plug. After subsequent removal of the mesenteric artery clamp, the intestines were gently placed back and the abdominal wall and skin were closed separately by sutures. Clamping and reperfusion were visually verified by absence or presence of pulsation in the mesenteric artery distal to the clamp site. From induction to recovery, the procedure takes approximately 60 minutes. Post-operatively, the animals were allowed to recover and subsequently were housed individually. Rats were weighed daily at the last hour of the dark period. Maximal weight loss within the first 5 days post-surgery was taken as measure of experienced severity of surgery. Behavioral tests were performed in the dark (active) period of the rats. The lights were turned on at 9:00 p.m. and off at 9:00 a.m. […] General exploratory behavior and anxiety was tested in the Open field (OF) test; spatial learning, spatial memory and cognitive flexibility in the Morris Water Maze (MWM); spatial working memory in the novel location recognition test (NL); the novel object recognition test (NO) for working memory on object recognition. The Novel Object and Novel Location Recognition were tested in random order in one procedure to assess spatial short term memory and object memory. For this test, an open square box (50×50×40 cm) with 2 transparent and two grey walls was used. Objects used in the test were selected from a pilot study, investigating the preferences of rats for different objects. Rats were habituated to the box for 3 minutes, the day before the test. The test consisted of four phases, each phase took 3 minutes. Between each phase there was a break of 45 seconds in which the rat remained in the test box. The first phase was performed in an empty box, in the second phase two identical objects were placed in both corners at the nearest end of the box. In this phase, the rat was allowed to explore both objects. After this exploration phase either a novel object test or novel location test was performed. Before the start of each phase both objects were removed from the box and cleaned with 70% ethanol. […]
# [2] = Brain levels of J147 after oral administration in Basis suspension; format: in vivo, Adult Wister Rats; conditions: oral 20 mg/kg in Basis suspension, PO_B satellite
# Description: Plasma samples obtained during surgery in J147-treated rats and 3 control rats were measured for circulating levels of J147. Results of pharmacokinetic measures of both plasma and brain levels of J147 in rats following oral administration of J147 in basis suspension at 20 mg/kg and also following intravascular administration at 5 mg/kg are shown in Table 2A-C below. When taking the absence of an appropriate peak as zero, mean concentration is 0 ng/ml in controls, 3.103 ng/ml in acutely treated rats and 0.233 ng/ml in chronically treated rats. J147 levels in food were verified as well (467 mg/kg). […] During the first 10 days after surgery and individual housing, rats on the diet ate on average 20±1 g, which was similar to the 20±1 g in surgery with control food and 23±1 g in non-surgery controls, verifying the anticipated intake of 10 mg J147/rat/day and further supporting no preference or aversion for the diet food.
# Tables 2A-2B. Pharmacokinetic Measures of Plasma and Brain Levels of J147 Formulated in Basis Suspension Administered Orally to Adult Wister Rats at 20mg/kg.
# • All of the brain samples were added with […] by brain weight (g) to PBS volume (mL) ratio 1:3 for homogenization. • The actual concentration (ng/g) is the detected value (ng/mL) multiplied by 4. • BLOQ: Below limit of quantitation (LLOQ: 2 ng/g) • NA: not available
smiles,measurement,setting,value
COc1cccc(/C=N/N(C(=O)C(F)(F)F)c2ccc(C)cc2C)c1 [J147],NOR score (novel object preference),"[1]; Surgery + acute J147, n = 12, random = 50%",60 ± 5%
same,Baseline exploration (% time),"[1]; Surgery + acute J147, n = 15, mean ± SEM",23.6 ± 2.3 % time
same,NLR score (novel location preference),"[1]; Surgery + acute J147, n = 15, random = 50%, significantly different from random",61 ± 4%
same,NLR score (novel location preference),"[1]; Surgery + chronic J147, n = 11, random = 50%, significantly different from random",70 ± 6%
same,NOR score (novel object preference),"[1]; Surgery + chronic J147, n = 12, random = 50%, significantly different from random",58 ± 4%
same,Baseline exploration (% time),"[1]; Surgery + chronic J147, n = 15, mean ± SEM",16.8 ± 2.5 % time
same,difference between the groups in preference for the novel or relocated object,[1]; acute and chronic J147 versus control groups,No significant differences
same,NLR test performance versus random,[1]; both treated groups (acute and chronic J147),performed above random
same,NLR performance compared with other groups,[1]; chronically treated rats,performed best in NLR
same,"NOR, effect of treatment",[1]; chronically treated rats,not affected
same,concentration at 0.25 h,"[2]; Wistar, rat, brain homogenate, po, 20 mg/kg, brain homogenate 1:3, Group 1, Group 2, LLOQ 2 ng/g, read-out: Brain Detected Conc.",0.736 ng/mL
same,concentration at 0.5 h,"[2]; Wistar, rat, brain homogenate, po, 20 mg/kg, 0.5 h, brain homogenate 1:3, Group 1, Group 2, LLOQ 2 ng/g, read-out: Brain Detected Conc.",1.14 ng/mL
same,concentration at 1 h,"[2]; Wistar, rat, brain homogenate, po, 20 mg/kg, 1 h, brain homogenate 1:3, Group 1, Group 2, LLOQ 2 ng/g, read-out: Brain Detected Conc.",7.01 ng/mL
same,concentration at 8 h,"[2]; Wistar, rat, brain homogenate, po, 20 mg/kg, 8 h, brain homogenate 1:3, Group 1, Group 2, LLOQ 2 ng/g, read-out: Brain Detected Conc.",0.831 ng/mL
same,concentration at 0.25 h,"[2]; Wistar, rat, brain, po, 20 mg/kg, detected value multiplied by 4, Group 1, Group 2, read-out: Brain Actual Conc.",2.94 ng/g
same,concentration at 0.5 h,"[2]; Wistar, rat, brain, po, 20 mg/kg, 0.5 h, detected value multiplied by 4, Group 1, Group 2, read-out: Brain Actual Conc.",4.56 ng/g
same,concentration at 0.5 h,"[2]; Wistar, rat, brain, po, 20 mg/kg, 0.5 h, mean of Group 1 and 2, read-out: Brain Actual Conc. Mean",3.94 ng/g
same,concentration at 1 h,"[2]; Wistar, rat, brain, po, 20 mg/kg, 1 h, detected value multiplied by 4, Group 1, Group 2, read-out: Brain Actual Conc.",28 ng/g
same,concentration at 1 h,"[2]; Wistar, rat, brain, po, 20 mg/kg, 1 h, mean of Group 1 and 2, read-out: Brain Actual Conc. Mean",23.7 ng/g
same,concentration at 2 h,"[2]; Wistar, rat, brain, po, 20 mg/kg, 2 h, mean of Group 1 and 2, read-out: Brain Actual Conc. Mean",28 ng/g
same,concentration at 4 h,"[2]; Wistar, rat, brain, po, 20 mg/kg, 4 h, mean of Group 1 and 2, read-out: Brain Actual Conc. Mean",20.6 ng/g
same,concentration at 8 h,"[2]; Wistar, rat, brain, po, 20 mg/kg, 8 h, detected value multiplied by 4, Group 1, Group 2, read-out: Brain Actual Conc.",3.32 ng/g
same,concentration at 8 h,"[2]; Wistar, rat, brain, po, 20 mg/kg, 8 h, mean of Group 1 and 2, read-out: Brain Actual Conc. Mean",3.26 ng/g
same,Brain Detected Conc.,"[2]; 0.5 h, brain homogenate 1:3, Group 1, Group 2, LLOQ 2 ng/g, 20 mg/kg",0.830 ng/mL
same,Brain Actual Conc.,"[2]; 0.5 h, detected value multiplied by 4, Group 1, Group 2, 20 mg/kg",3.32 ng/g
same,Brain Detected Conc.,"[2]; 1 h, brain homogenate 1:3, Group 1, Group 2, LLOQ 2 ng/g, 20 mg/kg",4.83 ng/mL
same,Brain Actual Conc.,"[2]; 1 h, detected value multiplied by 4, Group 1, Group 2, 20 mg/kg",19.3 ng/g
same,Brain Detected Conc.,"[2]; 8 h, brain homogenate 1:3, Group 1, Group 2, LLOQ 2 ng/g, 20 mg/kg",0.799 ng/mL
same,Brain Actual Conc.,"[2]; 8 h, detected value multiplied by 4, Group 1, Group 2, 20 mg/kg",3.20 ng/g
same,Brain Detected Conc.,"[2]; 12 h, brain homogenate 1:3, Group 1, Group 2, LLOQ 2 ng/g",BLOQ
same,Brain Detected Conc.,"[2]; 16 h, brain homogenate 1:3, Group 1, Group 2, LLOQ 2 ng/g",BLOQ
same,Brain Detected Conc.,"[2]; 20 h, brain homogenate 1:3, Group 1, Group 2, LLOQ 2 ng/g",BLOQ
same,Brain Detected Conc.,"[2]; 24 h, brain homogenate 1:3, Group 1, Group 2, LLOQ 2 ng/g",BLOQ
